Data from the CheMixHub viscosity set.

Assay: xn = mol fraction of the nth substance listed

CCCCCCO + CCCCCC
Settings | viscosity [mPa·s]
293.15 K, 100 kPa, x1 = 0.0277 | 0.3397
293.15 K, 100 kPa, x1 = 0.05 | 0.3453
293.15 K, 100 kPa, x1 = 0.1 | 0.3793
293.15 K, 100 kPa, x1 = 0.1976 | 0.4607
293.15 K, 100 kPa, x1 = 0.2999 | 0.5855
293.15 K, 100 kPa, x1 = 0.3999 | 0.7701
293.15 K, 100 kPa, x1 = 0.5 | 1.068
293.15 K, 100 kPa, x1 = 0.6002 | 1.481
293.15 K, 100 kPa, x1 = 0.7 | 1.971
293.15 K, 100 kPa, x1 = 0.8 | 2.71
293.15 K, 100 kPa, x1 = 0.9096 | 3.927
298.15 K, 100 kPa, x1 = 0.0277 | 0.3247
298.15 K, 100 kPa, x1 = 0.05 | 0.329
298.15 K, 100 kPa, x1 = 0.1 | 0.3597
298.15 K, 100 kPa, x1 = 0.1976 | 0.433
298.15 K, 100 kPa, x1 = 0.2999 | 0.5506
298.15 K, 100 kPa, x1 = 0.3999 | 0.7084
298.15 K, 100 kPa, x1 = 0.5 | 0.9696
298.15 K, 100 kPa, x1 = 0.6002 | 1.328
298.15 K, 100 kPa, x1 = 0.7 | 1.765
298.15 K, 100 kPa, x1 = 0.8 | 2.381
298.15 K, 100 kPa, x1 = 0.9096 | 3.398
298.15 K, 101.33 kPa, x2 = 0.1327 | 3.088
298.15 K, 101.33 kPa, x2 = 0.1854 | 2.578
298.15 K, 101.33 kPa, x2 = 0.2308 | 2.207
298.15 K, 101.33 kPa, x2 = 0.3137 | 1.632
298.15 K, 101.33 kPa, x2 = 0.4404 | 1.072
298.15 K, 101.33 kPa, x2 = 0.4841 | 0.941
298.15 K, 101.33 kPa, x2 = 0.6117 | 0.648
298.15 K, 101.33 kPa, x2 = 0.7122 | 0.501
298.15 K, 101.33 kPa, x2 = 0.8046 | 0.408
298.15 K, 101.33 kPa, x2 = 0.8997 | 0.338
298.15 K, 101.33 kPa, x2 = 0.9493 | 0.309
303 K, 101.33 kPa, x1 = 0.0995 | 0.3348
303 K, 101.33 kPa, x1 = 0.1996 | 0.4052
303 K, 101.33 kPa, x1 = 0.2995 | 0.5115
303 K, 101.33 kPa, x1 = 0.4012 | 0.6522
303 K, 101.33 kPa, x1 = 0.5004 | 0.8535
303 K, 101.33 kPa, x1 = 0.6 | 1.167
303 K, 101.33 kPa, x1 = 0.6983 | 1.608
303 K, 101.33 kPa, x1 = 0.7965 | 2.139
303 K, 101.33 kPa, x1 = 0.8984 | 2.867
303.15 K, 100 kPa, x1 = 0.0277 | 0.3116
303.15 K, 100 kPa, x1 = 0.05 | 0.3153
303.15 K, 100 kPa, x1 = 0.1 | 0.343
303.15 K, 100 kPa, x1 = 0.1976 | 0.4107
303.15 K, 100 kPa, x1 = 0.2999 | 0.5173
303.15 K, 100 kPa, x1 = 0.3999 | 0.6524
303.15 K, 100 kPa, x1 = 0.5 | 0.885
303.15 K, 100 kPa, x1 = 0.6002 | 1.194
303.15 K, 100 kPa, x1 = 0.7 | 1.569
303.15 K, 100 kPa, x1 = 0.8 | 2.091
303.15 K, 100 kPa, x1 = 0.9096 | 2.945
303.15 K, 101.33 kPa, x2 = 0.0954 | 2.883
303.15 K, 101.33 kPa, x2 = 0.1918 | 2.18
303.15 K, 101.33 kPa, x2 = 0.2892 | 1.6
303.15 K, 101.33 kPa, x2 = 0.3876 | 1.19
303.15 K, 101.33 kPa, x2 = 0.487 | 0.8951
303.15 K, 101.33 kPa, x2 = 0.5874 | 0.6793
303.15 K, 101.33 kPa, x2 = 0.689 | 0.5301
303.15 K, 101.33 kPa, x2 = 0.7915 | 0.4188
303.15 K, 101.33 kPa, x2 = 0.8952 | 0.3557
308.15 K, 100 kPa, x1 = 0.0277 | 0.2979
308.15 K, 100 kPa, x1 = 0.05 | 0.3006
308.15 K, 100 kPa, x1 = 0.1 | 0.3256
308.15 K, 100 kPa, x1 = 0.1976 | 0.3877
308.15 K, 100 kPa, x1 = 0.2999 | 0.4855
308.15 K, 100 kPa, x1 = 0.3999 | 0.6019
308.15 K, 100 kPa, x1 = 0.5 | 0.8102
308.15 K, 100 kPa, x1 = 0.6002 | 1.08
308.15 K, 100 kPa, x1 = 0.7 | 1.406
308.15 K, 100 kPa, x1 = 0.8 | 1.847
308.15 K, 100 kPa, x1 = 0.9096 | 2.566
313 K, 101.33 kPa, x1 = 0.0995 | 0.3081
313 K, 101.33 kPa, x1 = 0.1996 | 0.3673
313 K, 101.33 kPa, x1 = 0.2995 | 0.4576
313 K, 101.33 kPa, x1 = 0.4012 | 0.5618
313 K, 101.33 kPa, x1 = 0.5004 | 0.725
313 K, 101.33 kPa, x1 = 0.6 | 0.9609
313 K, 101.33 kPa, x1 = 0.6983 | 1.287
313 K, 101.33 kPa, x1 = 0.7965 | 1.673
313 K, 101.33 kPa, x1 = 0.8984 | 2.185
313.15 K, 100 kPa, x1 = 0.0277 | 0.2857
313.15 K, 100 kPa, x1 = 0.05 | 0.2883
313.15 K, 100 kPa, x1 = 0.1 | 0.3109
313.15 K, 100 kPa, x1 = 0.1976 | 0.3694
313.15 K, 100 kPa, x1 = 0.2999 | 0.4503
313.15 K, 100 kPa, x1 = 0.3999 | 0.555
313.15 K, 100 kPa, x1 = 0.5 | 0.7462
313.15 K, 100 kPa, x1 = 0.6002 | 0.9846
313.15 K, 100 kPa, x1 = 0.7 | 1.272
313.15 K, 100 kPa, x1 = 0.8 | 1.644
313.15 K, 100 kPa, x1 = 0.9096 | 2.251
313.15 K, 101.33 kPa, x2 = 0.0954 | 2.219
313.15 K, 101.33 kPa, x2 = 0.1918 | 1.71
313.15 K, 101.33 kPa, x2 = 0.2892 | 1.295
313.15 K, 101.33 kPa, x2 = 0.3876 | 0.9896
313.15 K, 101.33 kPa, x2 = 0.487 | 0.7581
313.15 K, 101.33 kPa, x2 = 0.5874 | 0.5894
313.15 K, 101.33 kPa, x2 = 0.689 | 0.4749
313.15 K, 101.33 kPa, x2 = 0.7915 | 0.3791
313.15 K, 101.33 kPa, x2 = 0.8952 | 0.3285
318.15 K, 100 kPa, x1 = 0.0277 | 0.2746
318.15 K, 100 kPa, x1 = 0.05 | 0.2766
318.15 K, 100 kPa, x1 = 0.1 | 0.297
318.15 K, 100 kPa, x1 = 0.1976 | 0.3511
318.15 K, 100 kPa, x1 = 0.2999 | 0.4266
318.15 K, 100 kPa, x1 = 0.3999 | 0.5178
318.15 K, 100 kPa, x1 = 0.5 | 0.6859
318.15 K, 100 kPa, x1 = 0.6002 | 0.8985
318.15 K, 100 kPa, x1 = 0.7 | 1.155
318.15 K, 100 kPa, x1 = 0.8 | 1.48
318.15 K, 100 kPa, x1 = 0.9096 | 1.987
323 K, 101.33 kPa, x1 = 0.0995 | 0.2787
323 K, 101.33 kPa, x1 = 0.1996 | 0.3303
323 K, 101.33 kPa, x1 = 0.2995 | 0.4051
323 K, 101.33 kPa, x1 = 0.4012 | 0.5023
323 K, 101.33 kPa, x1 = 0.5004 | 0.6113
323 K, 101.33 kPa, x1 = 0.6 | 0.7992
323 K, 101.33 kPa, x1 = 0.6983 | 1.049
323 K, 101.33 kPa, x1 = 0.7965 | 1.34
323 K, 101.33 kPa, x1 = 0.8984 | 1.721
323.15 K, 100 kPa, x2 = 0.25 | 1.211
323.15 K, 101.33 kPa, x2 = 0.0954 | 1.682
323.15 K, 101.33 kPa, x2 = 0.1918 | 1.32
323.15 K, 101.33 kPa, x2 = 0.2892 | 1.02
323.15 K, 101.33 kPa, x2 = 0.3876 | 0.8098
323.15 K, 101.33 kPa, x2 = 0.487 | 0.6263
323.15 K, 101.33 kPa, x2 = 0.5874 | 0.5103
323.15 K, 101.33 kPa, x2 = 0.689 | 0.404
323.15 K, 101.33 kPa, x2 = 0.7915 | 0.3396
323.15 K, 101.33 kPa, x2 = 0.8952 | 0.2844
